# Source: ChEMBL document CHEMBL5034011, “Discovery and Optimization of a 4-Aminopiperidine Scaffold for Inhibition of Hepatitis C Virus Assembly” (J Med Chem, 2021)
# What was measured:
# [1] = Permeability of the compound by PAMPA method; type: ADME; conditions: for Papp: read-out: permeability
# [2] = Kinetic aqueous solubility of compound by pION uSOL method at pH 7.4; conditions: buffer
# [3] = AUClast in CD-1 mouse plasma at 10 mg/kg; type: ADME, organism-based; parameters: time 0 - last, dose 10 mg/kg
# [4] = Tmax in CD-1 mouse brain at 10 mg/kg; type: ADME, organism-based
# [5] = Tmax in CD-1 mouse plasma at 10 mg/kg; type: ADME, organism-based
# [6] = Tmax in CD-1 mouse liver at 10 mg/kg; type: ADME, organism-based
# [7] = AUClast in CD-1 mouse liver at 10 mg/kg; type: ADME, organism-based; parameters: time 0 - last, dose 10 mg/kg
# [8] = AUClast in CD-1 mouse brain at 10 mg/kg; type: ADME, organism-based; parameters: time 0 - last, dose 10 mg/kg
# [9] = Cmax in CD-1 mouse plasma at 10 mg/kg; type: ADME, organism-based; parameters: dose 10 mg/kg
# [10] = Cmax in CD-1 mouse liver at 10 mg/kg; type: ADME, organism-based; parameters: dose 10 mg/kg
# [11] = Ratio of AUClast in liver to plasma in CD-1 mouse at 10 mg/kg; type: ADME, organism-based
# [12] = Ratio of AUClast in brain to plasma in CD-1 mouse at 10 mg/kg; type: ADME, organism-based
# [13] = AUClast in CD-1 mouse plasma at 1 mg/kg; type: ADME, organism-based; parameters: time 0 - last, dose 1 mg/kg
# [14] = AUClast in CD-1 mouse liver at 1 mg/kg; type: ADME, organism-based; parameters: time 0 - last, dose 1 mg/kg
# [15] = AUClast in CD-1 mouse brain at 1 mg/kg; type: ADME, organism-based; parameters: time 0 - last, dose 1 mg/kg
# [16] = Tmax in CD-1 mouse plasma at 1 mg/kg; type: ADME, organism-based
# [17] = Tmax in CD-1 mouse liver at 1 mg/kg; type: ADME, organism-based
# [18] = Tmax in CD-1 mouse brain at 1 mg/kg; type: ADME, organism-based
# [19] = Cmax in CD-1 mouse liver at 1 mg/kg; type: ADME, organism-based; parameters: dose 1 mg/kg
# [20] = Cmax in CD-1 mouse brain at 1 mg/kg; type: ADME, organism-based; parameters: dose 1 mg/kg
# [21] = Ratio of AUClast in liver to plasma in CD-1 mouse at 1 mg/kg; type: ADME, organism-based
# [22] = Ratio of AUClast in brain to plasma in CD-1 mouse at 1 mg/kg; type: ADME, organism-based
Compound,Papp [1],solubility kinetic [2],further results
Cc1ccc(C2CC(N(Cc3ccc(Br)c(Cl)c3)C3CCN(C(C)C)CC3)C2)cc1 (stereo not drawn),< 23.1 ×10⁻⁶ cm/s,15.4 µg/mL,
Cc1ccc(C2CC(N(Cc3ccc(Br)c(Cl)c3)C3CCC(N)CC3)C2)cc1 (stereo not drawn),818 ×10⁻⁶ cm/s,,
Cc1ccc(C2CC(N(Cc3ccc(Br)c(Cl)c3)C3CC4CCC(C3)N4)C2)cc1 (stereo not drawn),,11.1 µg/mL,
Cc1ccc(C2CC(N(Cc3ccc(Br)c(Cl)c3)C3C4CCC3CNC4)C2)cc1 (stereo not drawn),,< 1 µg/mL,
CC(=O)N1CCC(N(Cc2ccc(Br)c(Cl)c2)C2CC(c3ccc(C)cc3)C2)CC1 (stereo not drawn),,< 1 µg/mL,permeability [1]: 1909 10^-6 cm/s
Cc1ccc(C2CC(N(Cc3ccc(Br)c(Cl)c3)C3CC4CNC3C4)C2)cc1 (stereo not drawn),123 ×10⁻⁶ cm/s,7.26 µg/mL,
Cc1ccc(C2CC(N(Cc3ccc(Br)c(Cl)c3)C3CCNC3)C2)cc1 (stereo not drawn),,23.2 µg/mL,
Cc1ccc(C2CC(N(Cc3ccc(Br)c(Cl)c3)C3CCCNC3)C2)cc1 (stereo not drawn),,13.3 µg/mL,
Cc1ccc(C2CC(N(Cc3ccc(Br)c(Cl)c3)C3CCN(C)CC3)C2)cc1 (stereo not drawn),274 ×10⁻⁶ cm/s,22.9 µg/mL,
Cc1ccc(C2CC(N(Cc3ccc(Br)c(Cl)c3)C3CCOCC3)C2)cc1 (stereo not drawn),< 6.4 ×10⁻⁶ cm/s,< 1 µg/mL,

# Now from value to molecule, other results behind:
Papp [1],solubility kinetic [2],Compound,further results
,4 µg/mL,Clc1cccc(C2CC(N(Cc3ccc(Br)c(Cl)c3)C3CCNCC3)C2)c1 (stereo not drawn),
398 ×10⁻⁶ cm/s,,Fc1ccc(C2CC(N(Cc3ccc(Br)c(Cl)c3)C3CCNCC3)C2)cc1 (stereo not drawn),
806 ×10⁻⁶ cm/s,18.2 µg/mL,Cc1ccc(C2CC(N(Cc3ccc(Br)c(Cl)c3)C3CCNCC3)C2)cc1 (stereo not drawn),
666 ×10⁻⁶ cm/s,25.6 µg/mL,Cc1ccc(C2CC(N(Cc3ccc(Br)c(Cl)c3)C3CCCNCC3)C2)cc1 (stereo not drawn),
265 ×10⁻⁶ cm/s,,Cc1cccc(C2CC(N(Cc3ccc(Br)c(Cl)c3)C3CCNCC3)C2)c1 (stereo not drawn),
32 ×10⁻⁶ cm/s,3.32 µg/mL,Clc1cc(CN(C2CCNCC2)C2CC(c3ccc(Br)cc3)C2)ccc1Br (stereo not drawn),AUC(0-t) [3]: 10500 ng·h/mL; Tmax [4]: 24 h; Tmax [5]: 0.5 h; Tmax [6]: 1 h; AUC(0-t) [7]: 793000 ng·h/mL; AUC(0-t) [8]: 56800 ng·h/mL; Cmax [9]: 759 ng/mL; Cmax [10]: 57400 ng/mL; Kp [11]: 76; Kp [12]: 54
,9.71 µg/mL,Cc1ccc([C@H]2C[C@@H](N(Cc3ccc(Br)c(Cl)c3)C3CCNCC3)C2)cc1,
,1.09 µg/mL,Cc1ccc([C@H]2C[C@H](N(Cc3ccc(Br)c(Cl)c3)C3CCNCC3)C2)cc1,AUC(0-t) [13]: 275 ng·h/mL; AUC(0-t) [14]: 9570 ng·h/mL; AUC(0-t) [15]: 3000 ng·h/mL; Tmax [16]: 0.167 h; Tmax [17]: 2 h; Tmax [18]: 1.5 h; Cmax [19]: 1850 ng/mL; Cmax [20]: 153 ng/mL; Kp [21]: 35; Kp [22]: 11
14 ×10⁻⁶ cm/s,3.94 µg/mL,Clc1cc(CN(C2CCNCC2)C2CC(c3cccc(Br)c3)C2)ccc1Br (stereo not drawn),
